According to patent US5374641A, “N-(3-pyridylalkyl)sulfonamide compounds which have useful pharmaceutical activity” (Terumo Kabushiki Kaisha, priority 1991, dated 1994):

How the values were obtained:
[1] = test system: platelet aggregation caused by U-46619; assay: Test Examples 6: Platelet aggregation inhibiting activity (human PRP, U-46619); type: cell-based
Procedure: A blood sample was collected from human fore arm using a syringe containing 3.8% sodium citrate solution (1/10 volume of the blood to be collected) and centrifuged to obtain platelet rich plasma (PRP; 3×10^5 platelets/μl).
(§1) Platelet aggregation was measured using an aggregometer (Hematracer VI, Niko Bioscience Co., Ltd.) by putting 200 μof the thus prepared PRP and 23.75 μl of physiological saline in a cuvette, setting the cuvette into the aggregometer and incubating the contents at 37° C. for 2 minutes, adding 1.25 μl dimethyl sulfoxide (DMSO) solution of each of the N-(3-pyridylalkyl)sulfonamide derivatives obtained in Examples 35, 36, 37 and 42 and incubating for 3 minutes, and then adding U-46619 (Cayman Chemical Co., Inc.) which is a stable PGG2 /H2 derivative having a strong platelet aggregation causing activity.
In this instance, the term "IC50 " as used herein means concentration of the N-(3-pyridylalkyl)sulfonamide derivative of the present invention required to inhibit 50% of the platelet aggregation when platelet aggregation without introducing the inventive derivative was defined as 100%.

[2] = biological target: T1, thromboxane synthetase (Homo sapiens, UniProt P24557); assay: Test Example 7: Thromboxane synthetase inhibiting activity (human PRP, thrombin, RIA); type: cell-based
T1 sequence (P24557 1-533): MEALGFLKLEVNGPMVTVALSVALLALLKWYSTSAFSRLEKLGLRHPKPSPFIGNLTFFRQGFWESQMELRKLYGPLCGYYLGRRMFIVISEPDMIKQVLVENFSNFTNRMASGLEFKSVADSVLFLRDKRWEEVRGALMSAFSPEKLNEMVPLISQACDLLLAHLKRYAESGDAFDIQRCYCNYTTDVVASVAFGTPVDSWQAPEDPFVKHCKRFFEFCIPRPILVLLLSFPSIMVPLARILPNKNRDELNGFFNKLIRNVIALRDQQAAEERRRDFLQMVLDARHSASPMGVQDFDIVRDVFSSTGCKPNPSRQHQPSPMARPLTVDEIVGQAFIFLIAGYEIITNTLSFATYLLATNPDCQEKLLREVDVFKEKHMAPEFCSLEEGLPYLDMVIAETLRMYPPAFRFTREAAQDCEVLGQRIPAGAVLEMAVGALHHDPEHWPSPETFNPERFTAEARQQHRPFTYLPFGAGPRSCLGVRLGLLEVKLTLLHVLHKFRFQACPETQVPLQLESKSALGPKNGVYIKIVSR
Procedure: A blood sample was collected from human fore arm using a syringe containing 3.8% sodium citrate solution (1/10 volume of the blood to be collected) and centrifuged to obtain platelet rich plasma (PRP; 3×10^5 platelets/μl ).
(§2) A 200 μl portion of the thus prepared PRP and 23.75 μl of physiological saline were put in a cuvette, the cuvette was set into the aforementioned aggregometer and the contents in the cuvette were incubated at 37° C. for 2 minutes. Thereafter, 1.25 μ1 dimethyl sulfoxide (DMSO) solution of each of the N-(3-pyridylalkyl)sulfonamide derivatives obtained in Examples 36, 37, 38 and 40 was put in the cuvette and incubated for 3 minutes, followed by the addition of 20 U/ml solution of thrombin to cause platelet aggregation. A portion of the supernatant after aggregation reaction was mixed with diethyl ether/methanol/0.2M citric acid (30:4:1), and the thus formed thromboxane A2 was extracted and its quantity was analyzed by RIA using a kit of Amersham.

[3] = test system: tracheal smooth muscle contraction caused by the U-46619; assay: Test Examples 8: Competitive activity against TXA2.PGH2 (tracheal smooth muscle contraction caused by U-46619); type: cell-based, Hartley guinea pig; conditions: guinea pig trachea
Procedure: In vitro competitive activity (IC50) of the derivative of the present invention against TXA2 ·PGH2 was measured as follows.
(§3) Sections of tracheae excised from Hartley guinea pig males of 300 to 500 g in weight were suspended with a load of 0.3 g in Tyrode solution (30° C.) contained in a Magnus vessel which was aerated with a mixed gas system of 95% oxygen and 5% carbon dioxide. After about 1 hour of stabilization, U-46619 (a TXA2 ·PGH2 analog, manufactured by Cayman Chemical Co., Inc. ) was added to the solution in a concentration of 10^-7 M. Thereafter, effect of the addition of the inventive N-(3-pyridylalkyl)sulfonamide derivative obtained in Example 4 on the tracheal smooth muscle contraction caused by the U-46619 was measured and the IC50 value was calculated.

[4] = test system: platelet aggregation caused by U-46619; assay: Test Example 1: Platelet aggregation inhibiting activity (human PRP, U-46619); type: cell-based; conditions: for IC50: Platelet, 320 nM U-46619, 37° C., read-out: Inhibitory effect against platelet aggregation caused by U-46619 (IC50); for platelet aggregation inhibiting activity (in words): U-46619
Procedure: (§4) A blood sample was collected from human fore arm using a syringe containing 3.8% sodium citrate solution (1/10 volume of the blood to be collected) and centrifuged to obtain platelet rich plasma (PRP; 3 ×10^5 platelets/μ1).
as §1, with “200 µl of” for “200 μof”, “23.75 µl” for “23.75 μl”, “1.25 μ1” for “1.25 μl”, “Examples 1, 3, 4, 6” for “Examples 35, 36, 37”, “and 8” for “and 42”, “stable PGG2/ H2” for “stable PGG2 /H2”
In this instance, the term "IC50 "as used herein means concentration of the N-(3-pyridylalkyl)sulfonamide derivative of the present invention required to inhibit 50% of the platelet agglutination when platelet aggregation without introducing the inventive derivative was defined as 100%.

[5] = biological target: T1, thromboxane synthetase; assay: Test Example 2: Thromboxane synthetase inhibiting activity (human PRP, thrombin, RIA); type: cell-based; conditions: 20 U/ml thrombin, RIA, read-out: Inhibition of thromboxane A2 synthesis (IC50)
Procedure: as §4
as §2, with “200 μ1” for “200 μl”, “23.75 µl” for “23.75 μl”, “Examples 1, 3” for “Examples 36, 37, 38”, “and 7” for “and 40”, “acid (30:4:1 ),” for “acid (30:4:1),”

[6] = test system: tracheal smooth muscle contraction caused by the U-46619; assay: Test Example 3: Competitive activity against TXA2.PGH2 (tracheal smooth muscle contraction caused by U-46619); type: cell-based, Hartley guinea pig; conditions: guinea pig trachea
Procedure: In vitro competitive activity (IC50) of the derivative of the present invention against TXA2· PGH2 was measured as follows.
as §3, with “TXA2· PGH2” for “TXA2 ·PGH2”, “Inc.)” for “Inc. )”

[7] = Cavia porcellus, U-46619 10^-7 M, in vitro

SMILES | IC50 ([1]; Platelet, 320 nM U-46619, 37° C., read-out: Inhibitory effect against platelet aggregation caused by U-46619 (IC50)) | platelet aggregation inhibiting activity (in words) ([1]; U-46619) | IC50 ([2]; 20 U/ml thrombin, RIA, read-out: Inhibition of thromboxane A2 synthesis (IC50)) | thromboxane synthetase inhibiting activity (in words) ([2]; thrombin) | IC50 [3, 7] | in vitro competitive activity against TXA2.PGH2 (in words) ([3]; U-46619) | IC50 [4] | platelet aggregation inhibiting activity (in words) [4] | IC50 [5] | in vitro competitive activity against TXA2.PGH2 (in words) ([6]; U-46619) | IC50 [6, 7]
CCOC(=O)/C(C)=C/c1ccc(C(CNS(=O)(=O)c2ccc(Cl)cc2)Cc2cccnc2)cc1 (stereo not drawn) [Example 37, ethyl 4-[1-(4-chlorobenzenesulfonamido)-3-(3-pyridyl)-2-propyl]-α-methylcinnamate] | 66 µM | markedly high platelet aggregation inhibiting activity | 8.9 µM | excellent thromboxane synthetase inhibiting activity | 0.088 µM | excellent in vitro competitive |  |  |  |  | 
CCOC(=O)COc1ccc(C(CNS(=O)(=O)c2ccc(Cl)cc2)c2cccnc2)cc1 (stereo not shown) [Example 4, ethyl 4-[2-(4-chlorobenzenesulfonamido)-1-(3-pyridyl)ethyl]phenyloxyacetate] |  |  |  |  |  |  | 51 µM | markedly high platelet aggregation inhibiting activity | 0.033 µM | excellent in vitro competitive activity | 
O=C(O)COc1ccc(C(CNS(=O)(=O)c2ccc(Cl)cc2)c2cccnc2)cc1 (stereo not shown) [Example 5, 4-[2-(4-chlorobenzenesulfonamido)-1-(3-pyridyl)ethyl]phenyloxyacetic acid] |  |  |  |  |  |  | 16 µM | markedly high platelet aggregation inhibiting activity |  |  | 6.7 µM
